Measured values: patent US20070093491A1, “Novel condensed n-pyrazinyl-sulphonamides and their use in the treament of chemokine mediated diseases” (priority 2003, published 2007)
Structures can show the parent of a compound that is named as a salt.

Target: T1, human recombinant CCR4 receptor (Homo sapiens, UniProt P51679)
T1 construct: host or cells: CHO-K1
T1 sequence (P51679 1-360): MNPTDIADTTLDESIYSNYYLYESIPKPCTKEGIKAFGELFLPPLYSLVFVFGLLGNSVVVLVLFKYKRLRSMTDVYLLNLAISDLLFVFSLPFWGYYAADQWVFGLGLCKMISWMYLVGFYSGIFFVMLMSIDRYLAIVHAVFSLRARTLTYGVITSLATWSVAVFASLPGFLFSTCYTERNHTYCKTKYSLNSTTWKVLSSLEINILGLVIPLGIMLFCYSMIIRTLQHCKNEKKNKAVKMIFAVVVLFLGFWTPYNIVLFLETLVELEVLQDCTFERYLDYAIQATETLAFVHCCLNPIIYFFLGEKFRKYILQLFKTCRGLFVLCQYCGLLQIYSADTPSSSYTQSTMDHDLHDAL
Test: FMAT whole cell binding assay (FB-MDC binding to CHO-K1 cells expressing CCR4)
Details: inhibition of 2.8 nM FB-MDC binding to CHO-K1 cells stably expressing human recombinant CCR4; two hours incubation at room temperature; FMAT8100 reader
Procedure: FMAT Whole cell Binding Assay
CHO-K1 cells stably expressing the human recombinant CCR4 receptor (Euroscreen; Brussels, Belgium) were cultured in NUT.MIX.F—12(HAM) medium with glutamax-1, containing 10% (v/v) foetal bovine serum and 400 μg ml^−1 geneticin.
Cells were harvested at approximately 70% confluence by treatment with a cell dissociation buffer, and seeded at 5×10^3 cells/100 μl culture medium into wells of a black Costar clear-bottomed 96-well microtitre plates. Plates were incubated overnight at 37° C. in 5% CO2 and used the following day.
Before use, the cell plates were washed twice with 100 μl Hanks balanced salt solution (HBSS). To each well was then added 65 μl of HBSS, 10 μL of 10% DMSO in HBSS±test compound and then 25 μL of 2.8 nM FB-MDC (Applied Biosystems). This fluorescent probe was prepared from a 10 μM stock in 0.08% (v/v) TFA/16% (v/v) acetonitrile, diluted into HBSS.
After two hours incubation in the dark at room temperature, the plates were analysed in an FMAT8100 reader (Applied Biosystems) to measure fluorescence that was associated with binding of FB-MDC to the cells. Compound activity was determined as an pIC50 [log(concentration of compound that results in 50% inhibition)], comparing fluorescence in control and background wells.

Structure (SMILES) | IC50 [µM]
O=S(=O)(Nc1nc2ccccc2nc1OCc1ccco1)c1cccs1 [Example 5, N-[3-(2-Furylmethoxy)quinoxalin-2-yl]thiophene-2-sulfonamide] | 2
COc1nc2ccccc2nc1NS(=O)(=O)c1ccc(Cl)s1 [Example 3, 5-Chloro-N-(3-methoxyquinoxalin-2-yl)thiophene-2-sulfonamide] | 0.398
COc1nc2ccccc2nc1NS(=O)(=O)c1cccc(Cl)c1Cl [Example 1, 2,3-Dichloro-N-(3-methoxyquinoxalin-2-yl)-benzenesulfonamide] | 1.58

Tested on: not given
Test: not given
Details: not given

Structure (SMILES) | melting point [°C]
COc1nc2ncc(Br)cc2nc1NS(=O)(=O)c1cccc(Cl)c1Cl [Example 11, N-(7-Bromo-3-methoxypyrido[2,3-b]pyrazin-2-yl)-2,3-dichlorobenzenesulfonamide] | 230 to 231
COc1nc2cnccc2nc1NS(=O)(=O)c1cccc(Cl)c1Cl [Example 13, 2,3-Dichloro-N-(3-methoxypyrido[3,4-b]pyrazin-2-yl)benzenesulfonamide] | 256 to 257
COc1nc2cccnc2nc1NS(=O)(=O)c1cccc(Cl)c1Cl (as salt: TFA) [Example 7, 2,3-Dichloro-N-(2-methoxypyrido[2,3-b]pyrazin-3-yl)benzenesulfonamide] | 238 to 239
COc1nc2cc(Br)cnc2nc1NS(=O)(=O)c1cccc(Cl)c1Cl [Example 12, N-(7-bromo-2-methoxypyrido[2,3-b]pyrazin-3-yl)-2,3-dichlorobenzenesulfonamide] | 233 to 234
COc1cc2nc(NS(=O)(=O)c3cccc(Cl)c3Cl)c(OC)nc2cc1OC [Example 9, 2,3-Dichloro-N-(3,6,7-trimethoxyquinoxalin-2-yl)benzenesulfonamide] | 215
COc1nc2cc(Cl)c(Cl)cc2nc1NS(=O)(=O)c1cccc(Cl)c1Cl [Example 10, 2,3-Dichloro-N-(6,7-dichloro-3-methoxyquinoxalin-2-yl)benzenesulfonamide] | 283 to 285
